Data: ChEMBL document CHEMBL4627338, “Selective CDK6 degradation mediated by cereblon, VHL, and novel IAP-recruiting PROTACs” (Bioorg Med Chem Lett, 2020)
Calls of active or inactive are those of the source. The rule behind the calls is not given here.

Columns and labels:
CDK6/cyclin D3 = CDK6/cyclin D3 (Homo sapiens, UniProt Q00534); test: Inhibition of human CDK6/cyclin-D3 using RB protein as substrate by [gamma-33P]-ATP assay; format: protein-complex assay
[1] = target: Cyclin-dependent kinase 4/cyclin D1 (Homo sapiens, UniProt P11802); test: Inhibition of human CDK4/cyclin-D1 using RB protein as substrate by [gamma-33P]-ATP assay; format: protein-complex assay
[2] = target: Baculoviral IAP repeat-containing protein 2/Cyclin-dependent kinase 6 (Homo sapiens, UniProt Q00534+Q13490); test: Protac activity at CDK6/BIRC2 in human Jurkat cells assessed as induction of CDK6 degradation measured after 24 hrs by capillary electrophoresis; format: cell-based
[3] = target: T1, Baculoviral IAP repeat-containing protein 2/Cyclin-dependent kinase 4 (Homo sapiens, UniProt P11802+Q13490); test: Protac activity at CDK4/BIRC2 in human Jurkat cells assessed as induction of CDK4 degradation measured after 24 hrs by capillary electrophoresis; format: cell-based
Target sequence in this assay (P11802 whole entry): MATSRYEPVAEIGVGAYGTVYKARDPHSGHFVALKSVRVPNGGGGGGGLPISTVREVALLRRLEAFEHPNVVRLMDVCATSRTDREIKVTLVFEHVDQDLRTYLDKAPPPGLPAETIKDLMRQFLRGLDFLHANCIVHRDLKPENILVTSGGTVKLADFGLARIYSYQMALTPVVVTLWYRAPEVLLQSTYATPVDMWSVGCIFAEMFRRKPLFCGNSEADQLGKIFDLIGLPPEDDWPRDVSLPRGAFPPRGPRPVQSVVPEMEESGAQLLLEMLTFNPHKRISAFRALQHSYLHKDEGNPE
Target sequence in this assay (Q13490 whole entry): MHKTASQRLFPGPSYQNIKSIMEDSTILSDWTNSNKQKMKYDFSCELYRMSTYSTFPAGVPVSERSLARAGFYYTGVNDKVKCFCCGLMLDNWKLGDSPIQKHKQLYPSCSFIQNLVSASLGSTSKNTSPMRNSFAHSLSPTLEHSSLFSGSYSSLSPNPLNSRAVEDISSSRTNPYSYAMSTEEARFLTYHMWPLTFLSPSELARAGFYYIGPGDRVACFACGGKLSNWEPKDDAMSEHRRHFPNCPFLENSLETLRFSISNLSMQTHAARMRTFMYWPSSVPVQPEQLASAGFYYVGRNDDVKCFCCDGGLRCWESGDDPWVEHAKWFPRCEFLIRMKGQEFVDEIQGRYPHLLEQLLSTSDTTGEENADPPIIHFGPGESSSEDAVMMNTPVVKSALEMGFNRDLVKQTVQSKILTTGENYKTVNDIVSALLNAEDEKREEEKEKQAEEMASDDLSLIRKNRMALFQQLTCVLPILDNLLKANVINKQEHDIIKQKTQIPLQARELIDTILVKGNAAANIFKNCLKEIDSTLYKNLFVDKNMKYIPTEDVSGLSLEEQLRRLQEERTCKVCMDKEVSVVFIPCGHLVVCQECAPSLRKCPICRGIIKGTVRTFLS

[4] = system: Baculoviral IAP repeat-containing protein 2/Cyclin-dependent kinase 6 (Homo sapiens); test: Protac activity at CDK6/BIRC2 in human epoxomicin pretreated Jurkat cells assessed as decrease in CDK6 protein level measured after 5 hrs
[5] = target: T1, Baculoviral IAP repeat-containing protein 2/Cyclin-dependent kinase 4; test: Protac activity at CDK4/BIRC2 in human epoxomicin pretreated Jurkat cells assessed as decrease in CDK4 protein level measured after 5 hrs; format: cell-based
Target sequence in this assay (P11802 2-303 limits assumed): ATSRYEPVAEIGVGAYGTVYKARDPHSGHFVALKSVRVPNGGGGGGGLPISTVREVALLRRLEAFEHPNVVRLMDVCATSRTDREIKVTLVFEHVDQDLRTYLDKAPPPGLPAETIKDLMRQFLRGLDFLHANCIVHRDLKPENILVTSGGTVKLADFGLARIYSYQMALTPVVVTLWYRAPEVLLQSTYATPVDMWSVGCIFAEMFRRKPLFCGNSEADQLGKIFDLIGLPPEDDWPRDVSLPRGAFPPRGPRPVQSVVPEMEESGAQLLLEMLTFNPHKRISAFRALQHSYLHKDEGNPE
Target sequence in this assay (Q13490 whole entry partner): as the sequence (Q13490 whole entry) above

[6] = target: Protein cereblon/Cyclin-dependent kinase 4 (Homo sapiens, UniProt P11802+Q96SW2); test: Protac activity at CRBN/CDK4 in human Jurkat cells assessed as induction of CDK4 degradation measured after 24 hrs by capillary electrophoresis; format: cell-based
[7] = target: Protein cereblon/Cyclin-dependent kinase 6 (Homo sapiens, UniProt Q00534+Q96SW2); test: Protac activity at CRBN/CDK6 in human Jurkat cells assessed as induction of CDK6 degradation measured after 24 hrs by capillary electrophoresis; format: cell-based
[8] = target: von Hippel-Lindau disease tumor suppressor/Cyclin-dependent kinase 6 (Homo sapiens, UniProt Q00534+P40337); test: Protac activity at CDK6/VHL in human Jurkat cells assessed as induction of CDK6 degradation measured after 24 hrs by capillary electrophoresis; format: cell-based
[9] = target: T2, von Hippel-Lindau disease tumor suppressor/Cyclin-dependent kinase 4 (Homo sapiens, UniProt P11802+P40337); test: Protac activity at CDK4/VHL in human epoxomicin pretreated Jurkat cells assessed as decrease in CDK4 protein level measured after 5 hrs; format: cell-based
Target sequence in this assay (P11802 2-303 limits assumed): as the sequence (P11802 2-303 limits assumed) above
Target sequence in this assay (P40337 whole entry partner): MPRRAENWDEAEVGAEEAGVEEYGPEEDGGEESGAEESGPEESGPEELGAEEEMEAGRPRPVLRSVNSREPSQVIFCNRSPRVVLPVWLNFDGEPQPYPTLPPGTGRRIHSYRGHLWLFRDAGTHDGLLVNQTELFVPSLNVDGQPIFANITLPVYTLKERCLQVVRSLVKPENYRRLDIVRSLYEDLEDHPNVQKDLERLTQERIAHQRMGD

[10] = target: T2, von Hippel-Lindau disease tumor suppressor/Cyclin-dependent kinase 4; test: Protac activity at CDK4/VHL in human Jurkat cells assessed as induction of CDK4 degradation measured after 24 hrs by capillary electrophoresis; format: cell-based
Target sequence in this assay (P11802 whole entry): as the sequence (P11802 whole entry) above
Target sequence in this assay (P40337 whole entry): as the sequence (P40337 whole entry partner) above

[11] = system: von Hippel-Lindau disease tumor suppressor/Cyclin-dependent kinase 4 (Homo sapiens); test: Protac activity at CDK4/VHL in human epoxomicin pretreated Jurkat cells assessed as decrease in CDK4 protein level measured after 5 hrs

Sequence of Baculoviral IAP repeat-containing protein 2/Cyclin-dependent kinase 6 (Q00534 whole entry): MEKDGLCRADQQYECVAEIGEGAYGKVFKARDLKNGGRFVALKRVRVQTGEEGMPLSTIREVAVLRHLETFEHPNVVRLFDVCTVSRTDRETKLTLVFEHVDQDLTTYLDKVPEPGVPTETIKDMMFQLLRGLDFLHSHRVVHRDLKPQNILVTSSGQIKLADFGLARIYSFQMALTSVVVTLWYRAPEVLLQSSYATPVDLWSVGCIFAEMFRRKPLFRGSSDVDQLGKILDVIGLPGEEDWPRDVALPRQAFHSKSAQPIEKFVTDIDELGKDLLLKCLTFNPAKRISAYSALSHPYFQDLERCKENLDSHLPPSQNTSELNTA
Sequence of Baculoviral IAP repeat-containing protein 2/Cyclin-dependent kinase 6 (Q13490 whole entry): as the sequence (Q13490 whole entry) above
Sequence of Cyclin-dependent kinase 4/cyclin D1 (P11802 whole entry): as the sequence (P11802 whole entry) above
Sequence of Cyclin-dependent kinase 4/cyclin D1 (P24385 whole entry, further chain): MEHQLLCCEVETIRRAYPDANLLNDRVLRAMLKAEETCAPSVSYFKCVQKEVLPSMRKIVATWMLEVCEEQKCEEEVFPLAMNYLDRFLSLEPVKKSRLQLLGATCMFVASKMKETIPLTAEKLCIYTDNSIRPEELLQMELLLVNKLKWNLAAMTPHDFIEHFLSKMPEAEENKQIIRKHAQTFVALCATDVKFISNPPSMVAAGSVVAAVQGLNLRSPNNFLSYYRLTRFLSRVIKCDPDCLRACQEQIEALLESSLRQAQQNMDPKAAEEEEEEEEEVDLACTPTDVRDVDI
Sequence of CDK6/cyclin D3 (P30281 whole entry): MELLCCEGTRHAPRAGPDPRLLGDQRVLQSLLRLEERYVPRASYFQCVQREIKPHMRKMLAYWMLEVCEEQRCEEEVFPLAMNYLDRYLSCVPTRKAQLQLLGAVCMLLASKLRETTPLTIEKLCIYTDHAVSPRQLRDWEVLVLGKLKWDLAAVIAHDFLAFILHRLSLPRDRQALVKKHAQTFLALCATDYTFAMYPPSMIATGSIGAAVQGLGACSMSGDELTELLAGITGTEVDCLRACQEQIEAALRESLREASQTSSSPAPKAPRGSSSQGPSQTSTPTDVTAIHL
Sequence of CDK6/cyclin D3 (Q00534 whole entry): as the sequence (Q00534 whole entry) above
Sequence of von Hippel-Lindau disease tumor suppressor/Cyclin-dependent kinase 6 (Q00534 whole entry): as above
Sequence of von Hippel-Lindau disease tumor suppressor/Cyclin-dependent kinase 6 (P40337 whole entry): as the sequence (P40337 whole entry partner) above
Sequence of Protein cereblon/Cyclin-dependent kinase 6 (Q00534 whole entry): as the sequence (Q00534 whole entry) above
Sequence of Protein cereblon/Cyclin-dependent kinase 6 (Q96SW2 whole entry): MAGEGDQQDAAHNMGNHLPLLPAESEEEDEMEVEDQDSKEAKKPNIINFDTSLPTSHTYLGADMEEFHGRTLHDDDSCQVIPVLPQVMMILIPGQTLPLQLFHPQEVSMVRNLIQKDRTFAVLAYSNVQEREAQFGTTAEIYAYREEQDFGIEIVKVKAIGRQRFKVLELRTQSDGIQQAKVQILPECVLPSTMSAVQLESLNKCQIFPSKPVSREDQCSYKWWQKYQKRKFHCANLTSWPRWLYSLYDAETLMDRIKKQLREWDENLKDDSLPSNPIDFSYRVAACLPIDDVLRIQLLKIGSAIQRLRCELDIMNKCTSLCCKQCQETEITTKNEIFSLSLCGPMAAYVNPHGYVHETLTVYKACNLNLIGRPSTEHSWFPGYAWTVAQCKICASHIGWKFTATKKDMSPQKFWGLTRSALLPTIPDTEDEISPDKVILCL
Sequence of Protein cereblon/Cyclin-dependent kinase 4 (P11802 whole entry): as the sequence (P11802 whole entry) above
Sequence of Protein cereblon/Cyclin-dependent kinase 4 (Q96SW2 whole entry): as the sequence (Q96SW2 whole entry) above

Structure (SMILES)	IC50 (CDK6/cyclin D3; read-out: pIC50 (converted)) [nM]	IC50 [1] [nM]	pDC50 [2]	pDC50 [3]	other results
CN[C@@H](C)C(=O)N[C@H](C(=O)N1C[C@@H](NC(=O)CCOCCOCCOCCNC(=O)CN2CCN(c3ccc(Nc4ncc5c(C)c(C(C)=O)c(=O)n(C6CCCC6)c5n4)nc3)CC2)C[C@H]1C(=O)Nc1c(F)cccc1F)C(C)(C)C	39.8	15.8	5.8	5.3	–
CC(=O)c1c(C)c2cnc(Nc3ccc(N4CCN(CCCCNC(=O)CNc5cccc6c5C(=O)N(C5CCC(=O)NC5=O)C6=O)CC4)cn3)nc2n(C2CCCC2)c1=O (stereo unspecified)	–	3.16	–	–	–
CC(=O)c1c(C)c2cnc(Nc3ccc(N4CCN(CCOCCOCCNC(=O)CNc5cccc6c5C(=O)N(C5CCC(=O)NC5=O)C6=O)CC4)cn3)nc2n(C2CCCC2)c1=O (stereo unspecified)	15.8	6.31	–	–	pDC50 [6]: 7.3; pDC50 [7]: 8.3

Further lines, with some results ahead:

IC50 (CDK6/cyclin D3; read-out: pIC50 (converted)) [nM]	IC50 [1] [nM]	pDC50 [2]	pDC50 [3]	Structure (SMILES)	other results
12.6	5.01	8.3	7.7	CN[C@@H](C)C(=O)N[C@H](C(=O)N1C[C@@H](NC(=O)CCCCCCCN2CCN(c3ccc(Nc4ncc5c(C)c(C(C)=O)c(=O)n(C6CCCC6)c5n4)nc3)CC2)C[C@H]1C(=O)Nc1c(F)cccc1F)C(C)(C)C	Activity [4]: inactive; Activity [5]: inactive
15.8	6.31	7.8	7.1	CN[C@@H](C)C(=O)N[C@H](C(=O)N1C[C@@H](NC(=O)COCCOCCOCCN2CCN(c3ccc(Nc4ncc5c(C)c(C(C)=O)c(=O)n(C6CCCC6)c5n4)nc3)CC2)C[C@H]1C(=O)Nc1c(F)cccc1F)C(C)(C)C	–
–	31.6	–	–	CC(=O)c1c(C)c2cnc(Nc3ccc(N4CCN(CCCCCCCC(=O)N[C@H](C(=O)N5C[C@H](O)C[C@H]5C(=O)N[C@@H](C)c5ccc(-c6scnc6C)cc5)C(C)(C)C)CC4)cn3)nc2n(C2CCCC2)c1=O	DC50 [8]: 4 nM; pDC50 [8]: 8.4; IC50 (CDK6/cyclin D3; read-out: IC50): 200 nM; Activity [9]: inactive; pDC50 [10]: 7.6; Activity [11]: inactive
